Values of other authors in article PMC5589090 (PLoS Medicine, 2017).

Key:
Conditions in all cases: cited from earlier work
[1] = tested on: L5178Y mouse lymphoma cells; design: method as in ref 75 (a number printed in a supplementary file, which may have a reference list of its own: not looked up in the article's list)
[2] = tested on: normal CD34+ hematopoietic stem and progenitor cells
KG1a = tested on: KG1a
[3] = two daily treatments 0.5 µM, ref Investigators Brochure

Nc1ncn([C@H]2C[C@H](O)[C@@H](CO)O2)c(=O)n1 [decitabine, 5-aza-2’-deoxycytidine]
mutations as measured by 6TG resistance [1]: did not produce mutations | mutations as measured by tri-fluorothymidine resistance ([1]; thymidine kinase locus): did induce mutations | level that causes measurable DNA damage and apoptosis/cytotoxicity ([2]; peak drug level): > 1000 nM | DNMT1 depletion [2, 3]: substantially depleted DNMT1 | phospho-H2AX, DNA scission or apoptosis [2, 3]: did not increase phospho-H2AX, DNA scission or apoptosis | DNMT1 protein expression (KG1a; 0.3 µM daily for 2-3 days): profoundly decreased DNMT1 protein expression | viability (KG1a; 0.3 µM daily for 2-3 days): did not decrease the viability | phospho-H2AX (KG1a; 0.3 µM, 3 days of treatment): an increase in phospho-H2AX was noted
